Laboratory results as given in patent US20020103084A1, “Soybean derived pesticide” (priority 2000, published 2002).

System: Persia mites
Test: Spray on avocado trees infested with Persia mites
Assay type: in vivo
Conditions: Example 14, diluted 200 times water
Method: Soybean extract and soybean slurry prepared as described above are used in the following examples. Many of the following examples involve spraying solutions onto leaves. The amount sprayed in the subsequent examples is quantified as spraying an amount sufficient to totally wet the plant or leaf surface.
The prepared concentrated insecticide is then diluted with 100 times water and thereafter sprayed onto avocado trees infested with Persia mites. A control sample using water was also tested. The results are as follows:
The effectiveness of soybean extract (Sample I) sprayed upon avocado leaves infested with Persia mites is evaluated. Sample I is diluted at both 100 times and 500 times water and thereafter sprayed onto avocado trees infested with Persia mites. A control sample using water was also tested. The results are as follows:
The same samples used in Example 5 are also used in testing effectiveness for control of mites. The samples are diluted with 100 times water and sprayed onto avocado trees infested with Persia mites. Two controls were used: the first, pure water; and, the second, clove oil diluted 100 times with water. The test results are as the following:
The same samples used in Example 7 are also used in testing the control of mites. The samples are diluted with 100 times water and sprayed onto avocado trees infested with Persia mites. The test results are as the following: […]

O=C/C=C/c1ccccc1 [Cinnamic Aldehyde, cinnamic aldehyde]
Mortality (%) (6 days after spray): 57.3%
No. Mites 6 Days After Spray (average number of mites per leaf, avocado trees): 10.8
